Paper PMC9743428 (ACS Medicinal Chemistry Letters, 2022)
Values belong to the compound of their own block, whether it stands above or below them.

What was measured:
FFAR1 K259A = assay: Mutagenesis, IP accumulation, FFAR1 K259A mutant; format: cell-based, human
[1] = system: FFAR1 mutants (Y12, E65, A66, K259, L262); assay: Mutagenesis of the extracellular binding site, IP accumulation; format: cell-based, human
FFAR1 A83F = FFAR1 A83F (Homo sapiens, UniProt O14842, A83F); assay: Mutagenesis, IP accumulation, FFAR1 A83F mutant; format: cell-based
FFAR4 = molecular target: T1, FFAR4 (Homo sapiens, UniProt Q5NUL3); assay: IP accumulation assay in transiently transfected COS7 cells, FFAR4; format: cell-based
T1 sequence (Q5NUL3 1-361): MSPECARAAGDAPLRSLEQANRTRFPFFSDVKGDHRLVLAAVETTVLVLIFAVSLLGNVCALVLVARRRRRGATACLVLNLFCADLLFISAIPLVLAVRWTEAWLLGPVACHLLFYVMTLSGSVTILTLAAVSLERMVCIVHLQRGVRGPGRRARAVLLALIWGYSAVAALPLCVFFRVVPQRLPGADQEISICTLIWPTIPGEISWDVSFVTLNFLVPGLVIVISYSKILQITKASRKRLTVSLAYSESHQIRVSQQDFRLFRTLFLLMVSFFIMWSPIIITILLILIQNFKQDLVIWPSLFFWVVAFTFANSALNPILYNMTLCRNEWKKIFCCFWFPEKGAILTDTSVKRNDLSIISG

FFAR1 = FFAR1 (Homo sapiens, UniProt O14842); assay: IP accumulation assay in transiently transfected COS7 cells, FFAR1; format: cell-based; settings: for improved potency on FFAR1: as compared to the unsubstituted phenyl 54; for improved potency on FFAR1 / reduction of potency on FFAR1: range for the group
Sequence of FFAR1 (O14842 whole entry): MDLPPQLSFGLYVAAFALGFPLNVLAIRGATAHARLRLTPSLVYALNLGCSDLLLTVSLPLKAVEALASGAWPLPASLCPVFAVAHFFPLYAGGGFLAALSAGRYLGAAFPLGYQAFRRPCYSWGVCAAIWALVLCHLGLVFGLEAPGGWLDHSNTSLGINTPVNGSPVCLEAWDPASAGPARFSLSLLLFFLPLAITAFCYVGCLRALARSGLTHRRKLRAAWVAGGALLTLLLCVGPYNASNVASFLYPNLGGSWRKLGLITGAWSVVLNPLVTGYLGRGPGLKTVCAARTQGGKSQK

Sequence of FFAR1 A83F (O14842 whole entry A83F): as the sequence (O14842 whole entry) above, with A83F counted along it

Structure (SMILES): COc1ccc(F)c(-c2ccc(COc3ccc4c(c3)[C@]3(CC4)C[C@H]3C(=O)O)cc2[C@@H]2CCCC2(C)C)c1 [AM-5262]
- change in efficacy, K259A versus wild-type (FFAR1 K259A): −32%
- effect of extracellular-site mutations on activity [1]: no effect on compound potency
- impact of A83F mutation on activity (FFAR1 A83F): none

Structure (SMILES): Cc1cc(=O)oc2cc(OCc3nc(N)nc(Nc4ccc(O)cc4)n3)ccc12 [compound 18]
- activity on FFAR1 (FFAR1): inactive

Structure (SMILES): Cc1ccc(Nc2nc(N)nc(COc3cccc(N4CCCC4=O)c3)n2)cc1Cl [compound 28]
- loss of potency on FFAR1 (FFAR1; versus 4-methylchroman-2-one compound 11): ~6 fold

Structure (SMILES): Cc1ccc(Nc2nc(N)nc(COc3cc(N4CCCC4=O)cc(C(F)(F)F)c3)n2)cc1Cl [compound 38]
- selectivity for FFAR1 over FFAR4 (FFAR1): selective

Structure (SMILES): Cc1ccc(Nc2nc(N)nc(COc3cc(Cl)cc(N4CCCC4=O)c3)n2)cc1Cl [compound 42]
- gain of potency on FFAR1 (FFAR1; versus compound 28): 5 fold

Structure (SMILES): Cc1cc(OCc2nc(N)nc(NCCc3ccccc3)n2)cc(N2CCCC2=O)c1 [compound 54]
- increase of efficacy on FFAR1 (FFAR1; as compared to compound 43): 44%

Structure (SMILES): Cc1cc(OCc2nc(N)nc(NCCc3cccc(Cl)c3)n2)cc(N2CCCC2=O)c1 [compound 58]
- improved potency on FFAR1 (FFAR1): 2–8 fold

Structure (SMILES): Cc1cccc(CCNc2nc(N)nc(COc3cc(C)cc(N4CCCC4=O)c3)n2)c1 [compound 59]
- improved potency on FFAR1 (FFAR1): 2–8 fold

Structure (SMILES): COc1cccc(CCNc2nc(N)nc(COc3cc(C)cc(N4CCCC4=O)c3)n2)c1 [compound 60]
- improved potency on FFAR1 (FFAR1): 2–8 fold

Structure (SMILES): Cc1cc(OCc2nc(N)nc(NCCc3cccc(C(F)(F)F)c3)n2)cc(N2CCCC2=O)c1 [compound 61]
- improved potency on FFAR1 (FFAR1): 2–8 fold

Structure (SMILES): Cc1cc(OCc2nc(N)nc(NCCc3ccccc3F)n2)cc(N2CCCC2=O)c1 [compound 70]
- selectivity for FFAR1 over FFAR4 (FFAR1): highly selective for FFAR1

Structure (SMILES): Cc1cc(OCc2nc(N)nc(NCCc3cc(C)ccc3F)n2)cc(N2CCCC2=O)c1 [compound 76]
- selectivity for FFAR1 over FFAR4 (FFAR1): highly selective for FFAR1

Structure (SMILES): Cc1cc(OCc2nc(N)nc(NCCc3cc(Cl)ccc3Cl)n2)cc(N2CCCC2=O)c1 [compound 83]
- effect of extracellular-site mutations on activity [1]: profound effect

Structure (SMILES): Cc1cc(OCc2nc(N)nc(NCCc3ccc(Cl)cc3Cl)n2)cc(N2CCCC2=O)c1 [compound 84]
- reduction of potency on FFAR1 (FFAR1; versus compound 54): 2−3 fold

Structure (SMILES): Cc1cc(OCc2nc(N)nc(NCCc3ccc(C)cc3C)n2)cc(N2CCCC2=O)c1 [compound 85]
- reduction of potency on FFAR1 (FFAR1; versus compound 54): 2−3 fold

Structure (SMILES): COc1ccc(Cl)cc1CCNc1nc(N)nc(COc2cc(C)cc(N3CCCC3=O)c2)n1 [compound 86]
- reduction of potency on FFAR1 (FFAR1; versus compound 54): 2−3 fold

Structure (SMILES): Cc1cc(OCc2nc(N)nc(NCC3(c4cccc(Cl)c4)CC3)n2)cc(N2CCCC2=O)c1 [compound 90]
- activity on FFAR4 (FFAR4): loss of activity on FFAR4

Structure (SMILES): Cc1cc(OCc2nc(N)nc(NC3(Cc4cccc(Cl)c4)CC3)n2)cc(N2CCCC2=O)c1 [compound 92]
- activity on FFAR4 (FFAR4): loss of activity on FFAR4

Structure (SMILES): Cc1cc(OCc2nc(N)nc(NCC(c3cccc(Cl)c3)N3CCCC3)n2)cc(N2CCCC2=O)c1 (centres unmarked) [compound 94]
- activity on FFAR4 (FFAR4): loss of activity on FFAR4

Now from value to compound:

- activity on FFAR4 (FFAR4): entirely inactive on FFAR4
Structure (SMILES): Cc1cc(=O)oc2cc(OCc3nc(N)nc(Nc4ccc(C5CC5)cc4)n3)ccc12 [compound 7]

- activity on FFAR4 (FFAR4): entirely inactive on FFAR4
Structure (SMILES): Cc1ccc(Nc2nc(N)nc(COc3ccc4c(C)cc(=O)oc4c3)n2)cc1C [compound 13]

- activity on FFAR1 (FFAR1): inactive
Structure (SMILES): Cc1cc(=O)oc2cc(OCc3nc(N)nc(Nc4cccc(O)c4)n3)ccc12 [compound 17]

- selectivity for FFAR4 over FFAR1 (FFAR4): selective
Structure (SMILES): Cc1ccc(Nc2nc(N)nc(COc3cc(OC(F)(F)F)cc(N4CCCC4=O)c3)n2)cc1Cl [compound 46]

- improved potency on FFAR1 (FFAR1): 2–8 fold
Structure (SMILES): Cc1cc(OCc2nc(N)nc(NCCc3cccc(OC(F)F)c3)n2)cc(N2CCCC2=O)c1 [compound 62]

- activity on FFAR1 (FFAR1): entirely inactive
- selectivity for FFAR4 over FFAR1 (FFAR4): FFAR4-selective
Structure (SMILES): Cc1cc(OCc2nc(N)nc(NCCc3ccccc3N3CCOCC3)n2)cc(N2CCCC2=O)c1 [compound 74]

- loss of efficacy on FFAR1 (FFAR1; versus compound 54): −26%
Structure (SMILES): Cc1cc(OCc2nc(N)nc(NCCc3cc(F)ccc3F)n2)cc(N2CCCC2=O)c1 [compound 75]

- reduction of potency on FFAR1 (FFAR1; versus compound 54): 2−3 fold
Structure (SMILES): Cc1cc(OCc2nc(N)nc(NCCc3c(C)cccc3C)n2)cc(N2CCCC2=O)c1 [compound 87]

- activity on FFAR4 (FFAR4): loss of activity on FFAR4
Structure (SMILES): Cc1cc(OCc2nc(N)nc(NCC(c3c(F)cccc3F)N(C)C)n2)cc(N2CCCC2=O)c1 (centres unmarked) [compound 93]

- selectivity for FFAR1 over FFAR4 (FFAR1): highly FFAR1-selective
Structure (SMILES): Cc1cc(OCc2nc(N)nc(NCCc3cccc4c3OC(F)(F)O4)n2)cc(N2CCCC2=O)c1 [compound 101]
